Tested on: Bacillus atrophaeus ATCC 9372 spores
Experiment: Spore inactivation by 3.25 wt. % performic acid at various times and temperatures
Format: cell-based
Conditions: for Colony Forming Units (CFU) / Log Reduction: 3.25 wt. % performic acid
Text: An aqueous solution containing x weight percent of performic acid may be prepared by (1) diluting a commercially available aqueous solution of hydrogen peroxide (e.g., a 30 weight percent aqueous solution or a 50 weight percent aqueous solution) down to a concentration of 2x; (2) diluting a commercially available aqueous solution of formic acid (e.g., a 95 weight percent aqueous solution) down to a concentration of 2x; and (3) combining the diluted solution of hydrogen peroxide and the diluted solution of formic acid in a 1:1 volume, thereby providing performic acid in a concentration of x.
The procedure for performing spore inactivation tests in solution is as follows: Bacillus atrophaeus ATCC 9372 spores in saline were equilibrated in a water bath at the preselected test temperature, as was a formic acid/hydrogen peroxide mixture. At an initial time (T0), a volume of the formic acid/peroxide mixture was added to the spore preparation, such that the pre-chosen test concentration of the sterilization agent was achieved. At preselected times after the addition of the sterilization agent to the spore preparation, aliquots of the spore-treated mixture were transferred into a solution containing an excess of catalase (MP Biomedical) in order to quench the peroxide reaction. This solution was then serially ten-fold diluted and spread-plated onto tryptic soy agar plates that were subsequently incubated at 35° C. for 48 hours and enumerated.
An aqueous solution containing 3.25 wt. % of performic acid was prepared by (1) diluting a 50 wt. % aqueous solution of hydrogen peroxide down to a concentration of 6.5 wt. %; (2) diluting a 95 wt. % aqueous solution of formic acid down to a concentration of 6.5 wt. %; and (3) combining the 6.5 wt. % solution of hydrogen peroxide and the 6.5 wt. % solution of formic acid in a 1:1 volume.

performic acid
Colony Forming Units (CFU) (10° C., 5 seconds): 0 CFU
Log Reduction (10° C., 5 seconds): >7.8
Colony Forming Units (CFU) (10° C., 10 seconds): 0 CFU
Log Reduction (10° C., 10 seconds): >7.8
Colony Forming Units (CFU) (10° C., 15 seconds): 0 CFU
Log Reduction (10° C., 15 seconds): >7.8
Colony Forming Units (CFU) (20° C., 5 seconds): 0 CFU
Log Reduction (20° C., 5 seconds): >8
Colony Forming Units (CFU) (20° C., 10 seconds): 0 CFU
Log Reduction (20° C., 10 seconds): >8
Colony Forming Units (CFU) (20° C., 15 seconds): 0 CFU
Log Reduction (20° C., 15 seconds): >8
effectiveness in killing spores (in words) (room temperature and below (e.g., 5° C. or 10° C.), exposure times as little as 5 seconds): surprisingly and unexpectedly effective
